Measured values taken from ChEMBL document CHEMBL1133817, “Discovery of novel, orally active dual NK1/NK2 antagonists” (Bioorg Med Chem Lett, 2001).
Activity calls are given as the source filed them. The calls are words filed in the database; no cut-off is given here.

Columns and labels:
[1] = molecular target: T1, Substance-K receptor (Oryctolagus cuniculus) (UniProt P79218); assay: Binding constant towards Tachykinin receptor 2 using BANK as agonist on rabbit pulmonary artery tissues.
T1 sequence (whole entry): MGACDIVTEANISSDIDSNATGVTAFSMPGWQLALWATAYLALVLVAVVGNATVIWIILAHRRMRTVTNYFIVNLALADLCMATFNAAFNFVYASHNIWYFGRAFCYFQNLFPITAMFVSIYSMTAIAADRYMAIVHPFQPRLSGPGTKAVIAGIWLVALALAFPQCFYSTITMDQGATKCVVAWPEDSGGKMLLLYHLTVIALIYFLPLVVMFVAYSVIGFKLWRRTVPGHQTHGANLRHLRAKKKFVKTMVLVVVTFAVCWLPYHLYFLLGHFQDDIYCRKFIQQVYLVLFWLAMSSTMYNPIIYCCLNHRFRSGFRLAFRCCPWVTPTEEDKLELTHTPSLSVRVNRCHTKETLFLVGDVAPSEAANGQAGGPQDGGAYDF

[2] = tested on: Substance-P receptor (Oryctolagus cuniculus); assay: Binding constant towards tachykinin receptor 1 using ASMSP as agonist on rabbit pulmonary artery tissues.
[3] = molecular target: T1, Substance-K receptor (Oryctolagus cuniculus); assay: Binding constant towards Tachykinin receptor 2 using BANK as agonist on rabbit pulmonary artery tissues; NA is not active
Substance-P receptor = Substance-P receptor (Homo sapiens, UniProt P25103); conditions: Oryctolagus cuniculus; Artery
Sequence of Substance-P receptor (P25103 whole entry): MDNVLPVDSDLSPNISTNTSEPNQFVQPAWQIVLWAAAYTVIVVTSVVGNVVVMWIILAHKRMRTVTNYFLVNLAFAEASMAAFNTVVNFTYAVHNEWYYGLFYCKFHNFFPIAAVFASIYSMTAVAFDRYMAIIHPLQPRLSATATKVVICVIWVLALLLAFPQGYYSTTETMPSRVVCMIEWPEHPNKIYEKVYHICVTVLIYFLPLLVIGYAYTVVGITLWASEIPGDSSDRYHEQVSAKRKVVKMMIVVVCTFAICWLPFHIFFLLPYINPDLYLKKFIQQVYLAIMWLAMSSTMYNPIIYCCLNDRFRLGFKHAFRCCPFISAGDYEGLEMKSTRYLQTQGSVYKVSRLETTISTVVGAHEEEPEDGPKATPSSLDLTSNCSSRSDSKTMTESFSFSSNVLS
Description: Binding constant towards Tachykinin receptor 1 using ASMSP as agonist on rabbit pulmonary artery tissues; NA is not active

Row | Compound | pKB [1] | pKB [2] | pKB [3] | pKB (Substance-P receptor)
1 | CN(C[C@@H](CCN1CCC(O)(c2ccc([S+](C)[O-])cc2)CC1)c1ccc(Cl)c(Cl)c1)C(=O)c1cccc2ccccc12 (stereo partly drawn) | 7.54 | 6.92 | – | –
2 | CN(C[C@@H](CCN1CCC(c2ccccc2S(C)(=O)=O)CC1)c1ccc(Cl)c(Cl)c1)C(=O)c1cccc2ccccc12 | 7.55 | 7.81 | – | –
3 | CN(C[C@@H](CCN1CCC(O)(c2ccccc2[S+](C)[O-])CC1)c1ccc(Cl)c(Cl)c1)C(=O)c1cccc2ccccc12 (stereo partly drawn) | 7.32 | 7.3 | – | –
4 | CN(C[C@@H](CCN1CCC2(CC1)C[S+]([O-])c1ccccc12)c1ccc(Cl)c(Cl)c1)C(=O)c1cccc2ccccc12 (stereo partly drawn) | 8.1 | 6.98 | – | –
5 | CN(C[C@@H](CCN1CCC(c2ccccc2[S+](C)[O-])CC1)c1ccc(Cl)c(Cl)c1)C(=O)c1ccc(C#N)c2ccccc12 (stereo partly drawn) | 7.34 | 6.31 | – | –
6 | CN(C[C@@H](CCN1CCC(c2ccccn2)CC1)c1ccc(Cl)c(Cl)c1)C(=O)c1cccc2ccccc12 | – | 6.98 | inactive | –
7 | CN(C[C@@H](CCN1CCC(c2ccccc2[S+](C)[O-])CC1)c1ccc(Cl)c(Cl)c1)C(=O)c1cccc2ccc(C#N)cc12 (stereo partly drawn) | 8.51 | 8.13 | – | –
8 | CNC(=O)C1(N2CCCNC2=O)CCN(CC[C@H](CN(C)C(=O)c2cccc3ccccc23)c2ccc(Cl)c(Cl)c2)CC1 | 8.41 | 6.82 | – | –
9 | CCN1C(=O)c2ccccc2[C@H]1[C@@H](CCN1CCC(c2ccccc2[S@+](C)[O-])CC1)c1ccc(Cl)c(Cl)c1 | 8.8 | – | – | –
10 | CN(C[C@@H](CCN1CCC(c2ccccc2[S+](C)[O-])CC1)c1ccc(Cl)c(Cl)c1)C(=O)c1cccc2cc(C#N)ccc12 (stereo partly drawn) | 7.62 | 8.55 | – | –
11 | CN(C[C@@H](CCN1CCC(c2ccccc2C(F)(F)F)CC1)c1ccc(Cl)c(Cl)c1)C(=O)c1cccc2ccccc12 | – | 6.03 | inactive | –
12 | CC(=O)NC1(c2ccccc2)CCN(CC[C@H](CN(C)C(=O)c2ccccc2)c2ccc(Cl)c(Cl)c2)CC1 | 9.3 | – | – | –
13 | CNC(=O)c1ccccc1C1CCN(CC[C@H](CN(C)C(=O)c2cccc3ccccc23)c2ccc(Cl)c(Cl)c2)CC1 | 8.21 | 7.3 | – | –
14 | CC(=O)NC1(c2ccccc2)CCN(CC[C@H](CN(C)C(=O)c2cccc3ccccc23)c2ccc(Cl)c(Cl)c2)CC1 | 8.18 | 7.18 | – | –
15 | CN(C[C@@H](CCN1CCC(c2cccnc2[S+](C)[O-])CC1)c1ccc(Cl)c(Cl)c1)C(=O)c1cccc2ccccc12 (stereo partly drawn) | 7.82 | 7.69 | – | –
16 | CN(C[C@@H](CCN1CCC(N2CCCNC2=O)CC1)c1ccc(Cl)c(Cl)c1)C(=O)c1cccc2ccccc12 | 7.92 | 7.34 | – | –
17 | CN(C[C@@H](CCN1CCC(c2ccc([S+](C)[O-])cc2)CC1)c1ccc(Cl)c(Cl)c1)C(=O)c1cccc2ccccc12 (stereo partly drawn) | 6.76 | 7.4 | – | –
18 | CN(C)C(=O)c1cc(C(=O)N(C)C[C@@H](CCN2CCC(c3ccccc3[S+](C)[O-])CC2)c2ccc(Cl)c(Cl)c2)c2ccccc2c1 (stereo partly drawn) | 7.31 | 5.17 | – | –
19 | CNC(=O)C1(N2CCCCC2=O)CCN(CC[C@H](CN(C)C(=O)c2cccc3ccccc23)c2ccc(Cl)c(Cl)c2)CC1 | 8.44 | 6.42 | – | –
20 | CN(C[C@@H](CCN1CCC(N2C(=O)CCCC2=O)CC1)c1ccc(Cl)c(Cl)c1)C(=O)c1cccc2ccccc12 | – | 6.28 | inactive | –
21 | CN(C)C(=O)C1(N2CCCCC2=O)CCN(CC[C@H](CN(C)C(=O)c2cccc3ccccc23)c2ccc(Cl)c(Cl)c2)CC1 | 8.23 | 6.78 | – | –

Further lines, results first:

Row | pKB [1] | pKB [2] | pKB [3] | pKB (Substance-P receptor) | Compound
22 | 7.1 | 7.15 | – | – | CN(C[C@@H](CCN1CCC(c2ccccc2[S+](C)[O-])CC1)c1ccc(Cl)c(Cl)c1)C(=O)c1cc(Cl)cc2ccccc12 (stereo partly drawn)
23 | 7.24 | 7.24 | – | – | C=C(C)c1cc(C(=O)N(C)C[C@@H](CCN2CCC(c3ccccc3[S+](C)[O-])CC2)c2ccc(Cl)c(Cl)c2)c2ccccc2c1 (stereo partly drawn)
24 | 7.02 | 7.54 | – | – | CN(C[C@@H](CCN1CCC(c2ccccc2[S+](C)[O-])CC1)c1ccc(Cl)c(Cl)c1)C(=O)c1cc(S(N)(=O)=O)cc2ccccc12 (stereo partly drawn)
25 | 8.18 | 7.89 | – | – | CN(C[C@@H](CCN1CCC(c2ccccc2[S+](C)[O-])CC1)c1ccc(Cl)c(Cl)c1)C(=O)c1cccc2ccccc12 (stereo partly drawn)
26 | 7.67 | 8.15 | – | – | CN(C[C@@H](CCN1CCC(c2ccccc2[S+](C)[O-])CC1)c1ccc(Cl)c(Cl)c1)C(=O)c1cc(Br)cc2ccccc12 (stereo partly drawn)
27 | 6.99 | 8.42 | – | – | CN(C[C@@H](CCN1CCC(c2ccccc2[S+](C)[O-])CC1)c1ccc(Cl)c(Cl)c1)C(=O)c1cc(CC#N)cc2ccccc12 (stereo partly drawn)
28 | 9.03 | 8.16 | – | – | CN(C[C@@H](CCN1CCC(c2ccccc2[S+](C)[O-])CC1)c1ccc(Cl)c(Cl)c1)C(=O)c1cc([N+](=O)[O-])cc2ccccc12 (stereo partly drawn)
29 | 6.45 | 7.84 | – | – | CN(C[C@@H](CCN1CCC(c2ccccc2[S+](C)[O-])CC1)c1ccc(Cl)c(Cl)c1)C(=O)c1cc(C(F)(F)F)cc2ccccc12 (stereo partly drawn)
30 | 8.15 | 7.9 | – | – | CN(C[C@@H](CCN1CCC(c2ccccc2[S+](C)[O-])CC1)c1ccc(Cl)c(Cl)c1)C(=O)c1cc(F)cc2ccccc12 (stereo partly drawn)
31 | 7.35 | 7.43 | – | – | CN(C[C@@H](CCN1CCC(c2ccccc2[S+](C)[O-])CC1)c1ccc(Cl)c(Cl)c1)C(=O)c1cc(S(C)(=O)=O)cc2ccccc12 (stereo partly drawn)
32 | 7.7 | 7.95 | – | – | COc1cc(C(=O)N(C)C[C@@H](CCN2CCC(c3ccccc3[S+](C)[O-])CC2)c2ccc(Cl)c(Cl)c2)c2ccccc2c1 (stereo partly drawn)
33 | 7.44 | 7.71 | – | – | C#Cc1cc(C(=O)N(C)C[C@@H](CCN2CCC(c3ccccc3[S+](C)[O-])CC2)c2ccc(Cl)c(Cl)c2)c2ccccc2c1 (stereo partly drawn)
34 | 7.1 | – | – | inactive | CN(C[C@H](CCN1CCC(c2ccccc2[S+](C)[O-])CC1)c1ccc(Cl)c(Cl)c1)C(=O)c1cc(C#N)cc2ccccc12 (stereo partly drawn)
35 | 7.17 | 7.41 | – | – | CC(=O)c1cc(C(=O)N(C)C[C@@H](CCN2CCC(c3ccccc3[S+](C)[O-])CC2)c2ccc(Cl)c(Cl)c2)c2ccccc2c1 (stereo partly drawn)
36 | 6.86 | 5.68 | – | – | CN(C[C@@H](CCN1CCC(c2ccccc2[S+](C)[O-])CC1)c1ccc(Cl)c(Cl)c1)C(=O)c1cc(C(=O)O)cc2ccccc12 (stereo partly drawn)
37 | 7.29 | 8.03 | – | – | Cc1cc(C(=O)N(C)C[C@@H](CCN2CCC(c3ccccc3[S+](C)[O-])CC2)c2ccc(Cl)c(Cl)c2)c2ccccc2c1 (stereo partly drawn)
38 | 8.39 | – | – | – | CN(C[C@@H](CCN1CCC(c2ccccc2[S@+](C)[O-])CC1)c1ccc(Cl)c(Cl)c1)C(=O)c1cc(C#N)cc2ccccc12 (stereo in doubt; 4b)
